Measured values: article PMC5218480 (PLoS ONE, 2017)

System: MV-4-11 cells
Assay: Gene expression microarray analysis (Affymetrix PrimeView) and GSEA
Format: cell-based, human
Parameters: RFU PODN (11730768_x_at) / Fold change /veh PODN (11730768_x_at) / RFU LINC00158 (11744669_a_at) / Fold change /veh LINC00158 (11744669_a_at) / RFU DUSP10 (11751237_a_at) / Fold change /veh DUSP10 (11751237_a_at) / RFU ID3 (11757404_x_at) / Fold change /veh ID3 (11757404_x_at) / RFU PLEKHG5 (11737974_s_at) / Fold change /veh PLEKHG5 (11737974_s_at) / RFU LRRC4B (11730491_at) / Fold change /veh LRRC4B (11730491_at) / RFU GIMAP4 (11747438_a_at) / Fold change /veh GIMAP4 (11747438_a_at) / RFU KRT8 (11758183_x_at) / Fold change /veh KRT8 (11758183_x_at) / RFU CNN1 (11734310_a_at) / Fold change /veh CNN1 (11734310_a_at) / RFU VPS37D (11726825_at) / Fold change /veh VPS37D (11726825_at) / RFU C10orf10 (11716522_x_at) / Fold change /veh C10orf10 (11716522_x_at) / RFU KIR2DL2 /// KIR2DL4 /// KIR2DL5A /// KIR2DL5B /// KIR2DS1 /// KIR2DS2 /// KIR2DS3 /// KIR2DS4 /// KIR3DL3 /// KIR3DL3 /// KIR3DS1 (11738374_at) / Fold change /veh KIR2DL2 /// KIR2DL4 /// KIR2DL5A /// KIR2DL5B /// KIR2DS1 /// KIR2DS2 /// KIR2DS3 /// KIR2DS4 /// KIR3DL3 /// KIR3DL3 /// KIR3DS1 (11738374_at) / RFU C1QL1 (11718748_at) / Fold change /veh C1QL1 (11718748_at) / RFU TMPRSS4 (11747572_a_at) / Fold change /veh TMPRSS4 (11747572_a_at) / RFU HAMP (11756126_x_at) / Fold change /veh HAMP (11756126_x_at) / RFU RNFT2 (11725882_a_at) / Fold change /veh RNFT2 (11725882_a_at) / RFU NR4A2 (11747474_a_at) / Fold change /veh NR4A2 (11747474_a_at) / RFU ABCC12 (11746883_a_at) / Fold change /veh ABCC12 (11746883_a_at) / RFU TMEM136 (11760407_x_at) / Fold change /veh TMEM136 (11760407_x_at) / RFU CLDN22 /// WWC2 (11732394_at) / Fold change /veh CLDN22 /// WWC2 (11732394_at) / RFU HLA-DPB1 (11760878_x_at) / Fold change /veh HLA-DPB1 (11760878_x_at) / RFU SPINT1 (11716480_a_at) / Fold change /veh SPINT1 (11716480_a_at) / RFU GAP43 (11754022_s_at) / Fold change /veh GAP43 (11754022_s_at) / RFU A4GNT (11735810_at) / Fold change /veh A4GNT (11735810_at) / RFU PRB3 (11715151_x_at) / Fold change /veh PRB3 (11715151_x_at) / RFU TUBB4B (11761932_at) / Fold change /veh TUBB4B (11761932_at) / RFU CAPN14 (11732068_a_at) / Fold change /veh CAPN14 (11732068_a_at) / RFU TMCC2 (11721928_a_at) / Fold change /veh TMCC2 (11721928_a_at) / RFU IRGQ (11745062_a_at) / Fold change /veh IRGQ (11745062_a_at) / RFU FAM174B (11720279_a_at) / Fold change /veh FAM174B (11720279_a_at) / RFU TMPRSS4 (11748680_a_at) / Fold change /veh TMPRSS4 (11748680_a_at) / RFU FAM212B (11763350_a_at) / Fold change /veh FAM212B (11763350_a_at) / RFU PLEKHG5 (11743358_a_at) / Fold change /veh PLEKHG5 (11743358_a_at) / RFU ZSCAN30 (11745921_a_at) / Fold change /veh ZSCAN30 (11745921_a_at) / RFU CMKLR1 (11741424_a_at) / Fold change /veh CMKLR1 (11741424_a_at) / RFU LOC101060620 /// MAPK8IP1 (11723275_at) / Fold change /veh LOC101060620 /// MAPK8IP1 (11723275_at) / RFU SPTSSB (11747773_x_at) / Fold change /veh SPTSSB (11747773_x_at) / RFU PRSS12 (11739890_at) / Fold change /veh PRSS12 (11739890_at) / RFU BIN1 (11741810_x_at) / Fold change /veh BIN1 (11741810_x_at) / RFU WNT11 (11732464_a_at) / Fold change /veh WNT11 (11732464_a_at) / RFU C10orf10 (11716521_a_at) / Fold change /veh C10orf10 (11716521_a_at) / RFU C5orf56 (11738089_at) / Fold change /veh C5orf56 (11738089_at) / RFU CYB561 (11721691_x_at) / Fold change /veh CYB561 (11721691_x_at) / RFU ANKRD19P (11752326_a_at) / Fold change /veh ANKRD19P (11752326_a_at) / RFU OR2T12 /// OR2T33 /// OR2T8 (11738714_s_at) / Fold change /veh OR2T12 /// OR2T33 /// OR2T8 (11738714_s_at) / RFU VCAN (11748164_a_at) / Fold change /veh VCAN (11748164_a_at) / RFU JSRP1 (11732532_at) / Fold change /veh JSRP1 (11732532_at) / RFU KRTAP10-11 (11738290_x_at) / Fold change /veh KRTAP10-11 (11738290_x_at) / RFU MYO3A (11730013_a_at) / Fold change /veh MYO3A (11730013_a_at) / RFU EBF3 (11725865_a_at) / Fold change /veh EBF3 (11725865_a_at) / RFU CAMK2N1 (11719241_x_at) / Fold change /veh CAMK2N1 (11719241_x_at) / RFU C5orf56 (11738088_a_at) / Fold change /veh C5orf56 (11738088_a_at) / RFU OLFML3 (11715873_a_at) / Fold change /veh OLFML3 (11715873_a_at) / RFU LOC100653217 /// NTM (11731650_a_at) / Fold change /veh LOC100653217 /// NTM (11731650_a_at) / RFU MAPK11 (11762145_a_at) / Fold change /veh MAPK11 (11762145_a_at) / RFU FIZ1 (11724087_x_at) / Fold change /veh FIZ1 (11724087_x_at) / RFU OASL (11726364_x_at) / Fold change /veh OASL (11726364_x_at) / RFU SOX15 (11748057_x_at) / Fold change /veh SOX15 (11748057_x_at) / RFU CD79A (11719716_a_at) / Fold change /veh CD79A (11719716_a_at) / RFU HIST1H1D (11736915_at) / Fold change /veh HIST1H1D (11736915_at) / RFU CASKIN2 (11723855_a_at) / Fold change /veh CASKIN2 (11723855_a_at) / RFU LOC730098 (11760151_x_at) / Fold change /veh LOC730098 (11760151_x_at) / RFU OR4N2 (11742367_at) / Fold change /veh OR4N2 (11742367_at) / RFU PRRT2 (11749266_a_at) / Fold change /veh PRRT2 (11749266_a_at) / RFU SNX32 (11753110_a_at) / Fold change /veh SNX32 (11753110_a_at) / RFU CDHR5 (11726645_a_at) / Fold change /veh CDHR5 (11726645_a_at) / RFU RCAN1 (11760418_a_at) / Fold change /veh RCAN1 (11760418_a_at) / RFU FAM167A (11723789_a_at) / Fold change /veh FAM167A (11723789_a_at) / RFU FAM26E (11764081_at) / Fold change /veh FAM26E (11764081_at) / RFU ISYNA1 (11749810_s_at) / Fold change /veh ISYNA1 (11749810_s_at) / RFU ACY1 (11761880_at) / Fold change /veh ACY1 (11761880_at) / RFU 11764098_at / Fold change /veh 11764098_at / RFU SAMD14 (11745864_x_at) / Fold change /veh SAMD14 (11745864_x_at) / RFU NPB (11741838_a_at) / Fold change /veh NPB (11741838_a_at) / RFU TMPRSS6 (11731388_a_at) / Fold change /veh TMPRSS6 (11731388_a_at) / RFU KRTAP10-2 (11738614_at) / Fold change /veh KRTAP10-2 (11738614_at) / RFU ARHGAP8 /// PRR5-ARHGAP8 (11727945_x_at) / Fold change /veh ARHGAP8 /// PRR5-ARHGAP8 (11727945_x_at) / RFU KRTAP5-7 /// NADSYN1 (11734609_at) / Fold change /veh KRTAP5-7 /// NADSYN1 (11734609_at) / RFU RASL12 (11751679_a_at) / Fold change /veh RASL12 (11751679_a_at) / RFU CDKN2B (11736163_a_at) / Fold change /veh CDKN2B (11736163_a_at) / RFU PRF1 (11729649_at) / Fold change /veh PRF1 (11729649_at) / RFU, ZNF638 /// ZNF638-IT1 / Fold change vs veh, ZNF638 /// ZNF638-IT1 / RFU, PANK3 / Fold change vs veh, PANK3 / RFU, SH3YL1 / Fold change vs veh, SH3YL1 / RFU, ZEB2 / Fold change vs veh, ZEB2 / RFU, NRIP1 / Fold change vs veh, NRIP1 / RFU, PTTG1IP / Fold change vs veh, PTTG1IP / RFU, CAPN2 / Fold change vs veh, CAPN2 / RFU, MED14 / Fold change vs veh, MED14 / RFU, SNORA58 / Fold change vs veh, SNORA58 / RFU, C1orf63 / Fold change vs veh, C1orf63 / RFU, LRRFIP1 / Fold change vs veh, LRRFIP1 / RFU, NDUFAF7 / Fold change vs veh, NDUFAF7 / RFU, SLC12A2 / Fold change vs veh, SLC12A2 / RFU, IBTK / Fold change vs veh, IBTK / RFU, ESF1 / Fold change vs veh, ESF1 / Fold change vs veh, TMEM50B / RFU, TAOK1 / Fold change vs veh, TAOK1 / RFU, ACBD3 / Fold change vs veh, ACBD3 / RFU, TMA16 / Fold change vs veh, TMA16 / RFU, RWDD3 / Fold change vs veh, RWDD3 / RFU, BCAT1 / Fold change vs veh, BCAT1 / RFU, EDEM3 / Fold change vs veh, EDEM3 / RFU, TMEM33 / Fold change vs veh, TMEM33 / RFU, WDR75 / Fold change vs veh, WDR75 / RFU, AHCTF1 / Fold change vs veh, AHCTF1 / RFU, TFRC / Fold change vs veh, TFRC / RFU, ZDHHC17 / Fold change vs veh, ZDHHC17 / RFU, NOM1 / Fold change vs veh, NOM1 / RFU, ARL8B / Fold change vs veh, ARL8B / RFU, ZBTB11 / Fold change vs veh, ZBTB11 / RFU, TAMM41 / Fold change vs veh, TAMM41 / RFU, KIAA1704 /// LOC100996395 / Fold change vs veh, KIAA1704 /// LOC100996395 / RFU, ING1 / Fold change vs veh, ING1 / RFU, TRMT61B / Fold change vs veh, TRMT61B / RFU, FUBP3 / Fold change vs veh, FUBP3 / RFU, TP53 / Fold change vs veh, TP53 / RFU, TNKS2 / Fold change vs veh, TNKS2 / RFU, ZFP14 / Fold change vs veh, ZFP14 / RFU, ACTR2 / Fold change vs veh, ACTR2 / RFU, PPP3R1 / Fold change vs veh, PPP3R1 / RFU, PIK3R1 / Fold change vs veh, PIK3R1 / RFU, HNRNPA1 / Fold change vs veh, HNRNPA1 / RFU, RNF170 / Fold change vs veh, RNF170 / RFU, ZNF28 / Fold change vs veh, ZNF28 / RFU, RNGTT / Fold change vs veh, RNGTT / RFU, OGT / Fold change vs veh, OGT / RFU, BRD1 / Fold change vs veh, BRD1 / RFU, MARS / Fold change vs veh, MARS / RFU, ZNF655 / Fold change vs veh, ZNF655 / RFU, FAHD1 / Fold change vs veh, FAHD1 / RFU, BDP1 / Fold change vs veh, BDP1 / RFU, LRRCC1 / Fold change vs veh, LRRCC1 / RFU, ARID1A / Fold change vs veh, ARID1A / RFU, ZNF146 / Fold change vs veh, ZNF146 / RFU, ZNF330 / Fold change vs veh, ZNF330 / RFU, GPN3 / Fold change vs veh, GPN3 / RFU, C9orf123 / Fold change vs veh, C9orf123 / RFU, N4BP2L2 / Fold change vs veh, N4BP2L2 / RFU, ARFIP1 / Fold change vs veh, ARFIP1 / RFU, FAM179B / Fold change vs veh, FAM179B / RFU, BCL10 / Fold change vs veh, BCL10 / RFU, UHRF1BP1L / Fold change vs veh, UHRF1BP1L / RFU, BET1 / Fold change vs veh, BET1 / RFU, CNOT2 / Fold change vs veh, CNOT2 / RFU, ZNF268 / Fold change vs veh, ZNF268 / Fold change vs veh, ZNF507 / RFU, DGCR2 / Fold change vs veh, DGCR2 / RFU, WDSUB1 / Fold change vs veh, WDSUB1 / Fold change vs veh, HSP90B1 /// MIR3652 / RFU, ADSS / Fold change vs veh, ADSS / RFU, GK / Fold change vs veh, GK / RFU, ZNF148 / Fold change vs veh, ZNF148 / RFU, TAF9 / Fold change vs veh, TAF9 / RFU, SLC1A5 / Fold change vs veh, SLC1A5 / RFU, SLMO2 / Fold change vs veh, SLMO2 / RFU, ABCC4 / Fold change vs veh, ABCC4 / RFU, LOC101060439 /// RAP1B / Fold change vs veh, LOC101060439 /// RAP1B / RFU, RFX7 / Fold change vs veh, RFX7 / RFU, GTPBP10 / Fold change vs veh, GTPBP10 / RFU, CNEP1R1 / Fold change vs veh, CNEP1R1 / RFU, BIVM-ERCC5 /// ERCC5 / Fold change vs veh, BIVM-ERCC5 /// ERCC5 / RFU, ILF3 / Fold change vs veh, ILF3 / RFU 11762660_at / Fold change /veh 11762660_at / RFU VCAN (11757783_s_at) / Fold change /veh VCAN (11757783_s_at) / RFU DDX43 (11728927_at) / Fold change /veh DDX43 (11728927_at) / RFU KRT8 (11758188_x_at) / Fold change /veh KRT8 (11758188_x_at) / RFU NKD1 (11759106_at) / Fold change /veh NKD1 (11759106_at) / RFU SRD5A1 (11742802_a_at) / Fold change /veh SRD5A1 (11742802_a_at) / RFU TPSAB1 /// TPSB2 (11721975_s_at) / Fold change /veh TPSAB1 /// TPSB2 (11721975_s_at) / RFU GSTM3 (11746129_a_at) / Fold change /veh GSTM3 (11746129_a_at) / RFU IL23R (11737362_x_at) / Fold change /veh IL23R (11737362_x_at) / RFU TMEM51 (11727254_a_at) / Fold change /veh TMEM51 (11727254_a_at) / RFU PIWIL2 (11732686_x_at) / Fold change /veh PIWIL2 (11732686_x_at) / RFU ORM1 (11744905_x_at) / Fold change /veh ORM1 (11744905_x_at) / RFU CCDC152 (11743942_at) / Fold change /veh CCDC152 (11743942_at) / RFU ECM1 (11717891_a_at) / Fold change /veh ECM1 (11717891_a_at) / RFU IL23R (11748794_a_at) / Fold change /veh IL23R (11748794_a_at) / RFU TNFAIP8L3 (11732012_x_at) / Fold change /veh TNFAIP8L3 (11732012_x_at) / RFU MBOAT4 (11741988_at) / Fold change /veh MBOAT4 (11741988_at) / RFU 11764193_at / Fold change /veh 11764193_at / RFU TMEM53 (11763286_at) / Fold change /veh TMEM53 (11763286_at) / RFU MAGEB2 (11727129_at) / Fold change /veh MAGEB2 (11727129_at) / RFU TMEM200A (11744735_a_at) / Fold change /veh TMEM200A (11744735_a_at) / RFU CCDC152 (11751479_a_at) / Fold change /veh CCDC152 (11751479_a_at) / RFU FAM211A (11726209_a_at) / Fold change /veh FAM211A (11726209_a_at) / RFU RGS16 (11746705_a_at) / Fold change /veh RGS16 (11746705_a_at) / RFU VCAN (11755009_s_at) / Fold change /veh VCAN (11755009_s_at) / RFU RHOB (11743442_s_at) / Fold change /veh RHOB (11743442_s_at) / RFU RGS16 (11720943_a_at) / Fold change /veh RGS16 (11720943_a_at) / RFU RGS16 (11720944_at) / Fold change /veh RGS16 (11720944_at) / RFU, VPS4B / Fold change vs veh, VPS4B / RFU, CREB1 / Fold change vs veh, CREB1 / RFU, DNAJC13 / Fold change vs veh, DNAJC13 / RFU, GNAQ / Fold change vs veh, GNAQ / RFU, CDK5R1 / Fold change vs veh, CDK5R1 / RFU, ZRANB3 / Fold change vs veh, ZRANB3 / RFU, CUL4A / Fold change vs veh, CUL4A / RFU, CCNY / Fold change vs veh, CCNY / RFU, UFL1 / Fold change vs veh, UFL1 / RFU, COG3 / Fold change vs veh, COG3 / RFU, DIAPH2 / Fold change vs veh, DIAPH2 / RFU, SKA2 / Fold change vs veh, SKA2 / RFU, AFF3 / Fold change vs veh, AFF3 / RFU, LMF1 / Fold change vs veh, LMF1 / RFU, IPO11 / Fold change vs veh, IPO11 / RFU, DFFB / Fold change vs veh, DFFB / RFU, FOXP1 / Fold change vs veh, FOXP1 / RFU, CARD8 / Fold change vs veh, CARD8 / RFU, STRN3 / Fold change vs veh, STRN3 / RFU, ADK / Fold change vs veh, ADK / RFU, RASSF2 / Fold change vs veh, RASSF2 / RFU, WIPF1 / Fold change vs veh, WIPF1 / RFU, LARP1B / Fold change vs veh, LARP1B / RFU, RASA1 / Fold change vs veh, RASA1 / RFU, RB1 / Fold change vs veh, RB1 / RFU, PPFIA1 / Fold change vs veh, PPFIA1 / RFU, MAT2A / Fold change vs veh, MAT2A / RFU, CCT5 / Fold change vs veh, CCT5 / RFU, WDR92 / Fold change vs veh, WDR92 / RFU, CUX1 / Fold change vs veh, CUX1 / RFU, TTC7A / Fold change vs veh, TTC7A / RFU, TMEM135 / Fold change vs veh, TMEM135 / RFU, DEPTOR / Fold change vs veh, DEPTOR / RFU, CPM / Fold change vs veh, CPM / RFU, DNAJB6 / Fold change vs veh, DNAJB6 / RFU, CACNA2D3 / Fold change vs veh, CACNA2D3 / RFU, DTX4 / Fold change vs veh, DTX4 / RFU, TFCP2 / Fold change vs veh, TFCP2 / RFU, GMCL1 /// GMCL1P1 / Fold change vs veh, GMCL1 /// GMCL1P1 / RFU, AEBP2 / Fold change vs veh, AEBP2 / RFU, SNHG1 /// SNORD22 /// SNORD25 /// SNORD26 /// SNORD27 /// SNORD28 /// SNORD29 /// SNORD31 / Fold change vs veh, SNHG1 /// SNORD22 /// SNORD25 /// SNORD26 /// SNORD27 /// SNORD28 /// SNORD29 /// SNORD31 / Fold change (Aza/veh), C12orf56 (ProbeSet 11735607_a_at) / Fold change (ACY-1035/veh), C12orf56 (ProbeSet 11735607_a_at) / Fold change (Aza/veh), FGFR1OP (ProbeSet 11751329_s_at) / Fold change (ACY-1035/veh), FGFR1OP (ProbeSet 11751329_s_at) / Fold change (Aza/veh), VPS36 (ProbeSet 11739960_a_at) / Fold change (ACY-1035/veh), VPS36 (ProbeSet 11739960_a_at) / RFU SYPL1 (11715823_x_at) / Fold change /veh SYPL1 (11715823_x_at) / RFU IGFBP7 (11715501_s_at) / Fold change /veh IGFBP7 (11715501_s_at) / RFU REEP3 (11722064_at) / Fold change /veh REEP3 (11722064_at) / RFU IGLL1 (11728026_x_at) / Fold change /veh IGLL1 (11728026_x_at): dose or concentration left out as unconfirmed
Settings: ProbeSet 11739696_s_at; LIST D

`Nc1ncn([C@@H]2O[C@H](CO)[C@@H](O)[C@H]2O)c(=O)n1` [azacitidine] was tested, and the “RFU, AFF3” value was 345.70 RFU.
